Test results reported in US20210255193A1, “LYSINE REACTIVE PROBES AND USES THEREOF” (The Scripps Research Institute, priority 2017, published 2021).

Assays:
Assay in all cases: competitive isoTOP-ABPP
Format in all cases: binding
[1] = target: T1, GBAS Protein NipSnap homolog 2 (Homo sapiens, UniProt O75323); conditions: for R value (DMSO/fragment) for probe 1 labeling: O75323_K75; for R value (DMSO/fragment) for probe 1 labeling / isoTOP-ABPP reactivity ratio at lysine O75323_K75 / isoTOP-ABPP ratio (R) at liganded lysine O75323_K75: 50 uM, in vitro; for R value (DMSO/fragment) for probe 1 labeling / isoTOP-ABPP reactivity ratio at lysine O75323_K75: 231 sol; for isoTOP-ABPP ratio (R) at liganded lysine O75323_K75: sol, 231
T1 construct: isoTOP-ABPP experiments performed in cell lysates (in vitro); endogenous in cells; host or cells: MDA-MB-231 soluble lysate
T1 sequence (O75323 24-286): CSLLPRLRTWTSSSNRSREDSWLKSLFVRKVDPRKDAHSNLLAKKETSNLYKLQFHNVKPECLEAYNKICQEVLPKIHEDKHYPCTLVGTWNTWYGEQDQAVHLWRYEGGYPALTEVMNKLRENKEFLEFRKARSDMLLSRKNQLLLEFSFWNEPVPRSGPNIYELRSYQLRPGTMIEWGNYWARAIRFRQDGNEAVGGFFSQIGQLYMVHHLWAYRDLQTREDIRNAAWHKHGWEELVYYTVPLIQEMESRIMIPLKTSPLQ
Experimental: (§1) In vitro covalent fragment treatment for isoTOP-ABPP. All compounds were made up as solutions in DMSO (100×) and were used at a final concentration of 50 μM for activated esters and 100 μM for guanidinylating agents. For each profiling sample, 0.5 ml of lysate was treated with 5 μl of the 100× compound stock solution or 5 μl of DMSO. Samples were treated with activated esters for
(§2) STP-alkyne labeling and click chemistry. For concentration-dependent reactivity measurements by isoTOP-ABPP, 0.5 ml proteome aliquots were treated at ambient temperature with 1 mM STP-alkyne 1 (5 μl of 100 mM stock in DMSO) and 0.1 mM STP alkyne 1 (5 μl of 10 mM stock in DMSO), respectively. For competitive isoTOP-ABPP, after in vitro fragment treatment (detailed above), the samples were labeled for 1 h at ambient temperature with 0.1 mM STP-alkyne 1 (5 μl of 10 mM stock in DMSO). Samples were conjugated by copper-mediated azide-alkyne cycloaddition (CuAAC) to either the light (1 mM STP-alkyne or fragment treated) or heavy (0.1 mM STP-alkyne or DMSO treated) TEV tags (10 μl of 5 mM stocks in DMSO, final concentration=100 μM) using tris(2-carboxyethyl)phosphine hydrochloride
(§3) R value calculation and processing. The ratios of light and heavy MS1 peaks for each unique peptide were quantified with a CIMAGE software using default parameters (3 MS1 acquisitions per peak and signal to noise threshold set to 2.5). For reactivity measurements by isoTOP-ABPP, the R value was calculated from the ratio of MS1 peak areas, comparing the 1 mM STP alkyne sample (light TEV tag) with the 0.1 mM STP alkyne sample (heavy TEV tag). For competitive isoTOP-ABPP, the R value was calculated from the ratio of MS1 peak areas, comparing the DMSO treated sample (heavy TEV tag) with the compound treated sample (light TEV tag). […] Ratios for unique peptide entries are calculated for each experiment; overlapping peptides with the same modified lysine (for example, different charge states, MudPIT chromatographic steps or tryptic termini) are grouped together and the median ratio is reported as the final ratio (R). The peptide ratios reported by CIMAGE were further filtered to ensure the removal or correction of low-quality ratios in each individual data set. The quality filters applied were the following: removal of half tryptic peptides; for ratios with high standard deviations from the median (90% of the median or above) the lowest ratio was taken instead of the median; removal of peptides with R=20 and only a single MS2 event triggered during the elution of the parent ion; manual annotation of all the peptides with ratios of 20, removing any peptides with low quality elution profiles that remained after the previous curation steps (only done for competitive isoTOP-ABPP).
(§4) Cross-data processing for fragment screening. For compound treated samples, biological replicates of the same condition were averaged, if the standard deviation was below 60% of the mean; otherwise, for lysines with at least one R value <4 for a particular compound, the lowest value of the ratio set was taken. For lysines, where all R values for a particular compound were ≥4, the average was reported. For peptides containing several possible modified lysines, the lysine with the highest number of quantification events was used for analysis and the remaining, redundant peptides were reported as alternative modification sites. Peptides included in the aggregate dataset (those used for further bioinformatics and statistical analyses) were required to have been quantified in 2 experiments for competitive isoTOP-ABPP. Lysines were categorized as liganded, if they had at least one ratio R≥4 (hit fragments). For liganded lysines with R=20 for all liganding events, lysines were required to have been quantified with R=20 in two separate experiments and were further required to have been quantified with R<20 in one additional experiment.

[2] = target: T2, RPL10 60S ribosomal protein L10 (Homo sapiens, UniProt P27635); conditions: for isoTOP-ABPP ratio (R) at liganded lysine P27635_K121: sol, 231
T2 construct: isoTOP-ABPP experiments performed in cell lysates (in vitro); endogenous in cells; host or cells: soluble proteome of human cancer cell lines (MDA-MB-231; Ramos and Jurkat also prepared)
Experimental: as §1, §2, §3, §4

FAH Fumarylacetoacetase = target: T3, FAH Fumarylacetoacetase (Homo sapiens, UniProt P16930); conditions: for R value (DMSO/fragment) for probe 1 labeling: P16930_K241; for R value (DMSO/fragment) for probe 1 labeling / isoTOP-ABPP reactivity ratio at lysine P16930_K241 / isoTOP-ABPP ratio (R) at liganded lysine P16930_K241: 50 uM, in vitro; for R value (DMSO/fragment) for probe 1 labeling / isoTOP-ABPP reactivity ratio at lysine P16930_K241: 231 sol; for isoTOP-ABPP ratio (R) at liganded lysine P16930_K241: sol, 231
T3 construct: isoTOP-ABPP experiments performed in cell lysates (in vitro); endogenous in cells; host or cells: soluble proteome of human cancer cell lines (MDA-MB-231; Ramos and Jurkat also prepared)
T3 sequence (P16930 1-419): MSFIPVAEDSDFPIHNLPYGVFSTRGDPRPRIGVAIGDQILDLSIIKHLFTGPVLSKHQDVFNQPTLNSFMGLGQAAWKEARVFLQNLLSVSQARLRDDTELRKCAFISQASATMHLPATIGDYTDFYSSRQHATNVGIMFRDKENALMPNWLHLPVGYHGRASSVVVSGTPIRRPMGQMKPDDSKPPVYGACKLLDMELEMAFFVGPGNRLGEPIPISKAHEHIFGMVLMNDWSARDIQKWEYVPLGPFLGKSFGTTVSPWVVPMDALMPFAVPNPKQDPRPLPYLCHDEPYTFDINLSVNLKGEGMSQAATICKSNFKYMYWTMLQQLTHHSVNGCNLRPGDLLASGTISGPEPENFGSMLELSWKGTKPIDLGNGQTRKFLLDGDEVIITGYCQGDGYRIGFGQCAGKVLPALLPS
Experimental: as §1, §2, §3, §4

[3] = target: T4, GTPBP3 tRNA modification GTPase GTPBP3, mitochondrial (Homo sapiens, UniProt Q969Y2); conditions: 50 uM, in vitro; for isoTOP-ABPP reactivity ratio at lysine Q969Y2_K492: 231 sol; for isoTOP-ABPP ratio (R) at liganded lysine Q969Y2_K492: sol, 231
T4 construct: isoTOP-ABPP experiments performed in cell lysates (in vitro); endogenous in cells; host or cells: soluble proteome of human cancer cell lines (MDA-MB-231; Ramos and Jurkat also prepared)
T4 sequence (Q969Y2 21-492): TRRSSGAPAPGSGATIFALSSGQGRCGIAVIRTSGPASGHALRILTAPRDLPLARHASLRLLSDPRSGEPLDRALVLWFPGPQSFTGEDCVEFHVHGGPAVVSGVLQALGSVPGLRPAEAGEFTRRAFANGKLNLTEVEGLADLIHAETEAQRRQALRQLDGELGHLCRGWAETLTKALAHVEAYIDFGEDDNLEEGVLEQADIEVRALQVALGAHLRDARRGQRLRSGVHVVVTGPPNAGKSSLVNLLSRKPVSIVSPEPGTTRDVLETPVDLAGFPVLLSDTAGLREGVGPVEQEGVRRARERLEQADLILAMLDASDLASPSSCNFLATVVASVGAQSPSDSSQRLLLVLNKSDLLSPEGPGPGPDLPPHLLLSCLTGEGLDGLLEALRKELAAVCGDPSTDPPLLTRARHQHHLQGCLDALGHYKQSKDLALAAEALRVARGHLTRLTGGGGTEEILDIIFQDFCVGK
Experimental: as §1, §2, §3, §4

O=C(CCc1cn(-c2ccccc2)nc1-c1ccccc1)Oc1c(F)c(F)c(F)c(F)c1F [fragment 19, Pentafluorophenyl 3-(1,3-diphenyl-1H-pyrazol-4-yl)propanoate]
R value (DMSO/fragment) for probe 1 labeling [1]: 1.0 | R value (DMSO/fragment) for probe 1 labeling ([2]; P27635_K121, 50 uM, 231 sol, in vitro): 0.9 | R value (DMSO/fragment) for probe 1 labeling (FAH Fumarylacetoacetase): 2.5

COc1cc(CCC(=O)Oc2c(F)c(F)c(F)c(F)c2F)cc(OC)c1OC [fragment 23, Pentafluorophenyl 3-(3,4,5-trimethoxyphenyl)propanoate]
R value (DMSO/fragment) for probe 1 labeling [1]: 1.1 | R value (DMSO/fragment) for probe 1 labeling (FAH Fumarylacetoacetase): 2.8

O=C(Oc1c(F)c(F)c(F)c(F)c1F)C1CCN(C(=O)OCc2ccccc2)CC1 [fragment 24, 1-Benzyl 4-(pentafluorophenyl) piperidine-1,4-dicarboxylate]
isoTOP-ABPP reactivity ratio at lysine O75323_K75 [1]: 1.0 | isoTOP-ABPP reactivity ratio at lysine P16930_K241 (FAH Fumarylacetoacetase): 1.1

O=C(Oc1c(F)c(F)c(F)c(F)c1F)c1ccc2ccccc2n1 [fragment 25, Pentafluorophenyl quinoline-2-carboxylate]
isoTOP-ABPP reactivity ratio at lysine O75323_K75 [1]: 1.4 | isoTOP-ABPP reactivity ratio at lysine P16930_K241 (FAH Fumarylacetoacetase): 5.2

O=C(CN1C(=O)c2ccccc2C1=O)Oc1c(F)c(F)c(F)c(F)c1F [fragment 27, Pentafluorophenyl 2-(1,3-dioxoisoindolin-2-yl)acetate]
isoTOP-ABPP reactivity ratio at lysine O75323_K75 [1]: 20.0 | isoTOP-ABPP reactivity ratio at lysine P16930_K241 (FAH Fumarylacetoacetase): 1.8 | isoTOP-ABPP reactivity ratio at lysine Q969Y2_K492 [3]: 1.6

CCn1cc(C(=O)Oc2c(F)c(F)c(F)c(F)c2F)c(=O)c2ccc(C)nc21 [fragment 28, Pentafluorophenyl 1-ethyl-7-methyl-4-oxo-1,4-dihydro-1,8-naphthyridine-3-carboxylate]
isoTOP-ABPP reactivity ratio at lysine O75323_K75 [1]: 1.0 | isoTOP-ABPP reactivity ratio at lysine P16930_K241 (FAH Fumarylacetoacetase): 2.5

O=C(Oc1ccc([N+](=O)[O-])cc1[N+](=O)[O-])c1cc(C(F)(F)F)cc(C(F)(F)F)c1 [fragment 31, 2,4-Dinitrophenyl 3,5-bis(trifluoromethyl)benzoate]
isoTOP-ABPP reactivity ratio at lysine O75323_K75 [1]: 0.8 | isoTOP-ABPP reactivity ratio at lysine P16930_K241 (FAH Fumarylacetoacetase): 20.0 | isoTOP-ABPP reactivity ratio at lysine Q969Y2_K492 [3]: 1.4

Cn1cc(CC(=O)Oc2ccc([N+](=O)[O-])cc2[N+](=O)[O-])c2ccccc21 [fragment 32, 2,4-Dinitrophenyl 2-(1-methyl-1H-indol-3-yl)acetate]
isoTOP-ABPP reactivity ratio at lysine P27635_K121 ([2]; 50 uM, 231 sol, in vitro): 1.7 | isoTOP-ABPP reactivity ratio at lysine P16930_K241 (FAH Fumarylacetoacetase): 2.2 | isoTOP-ABPP reactivity ratio at lysine Q969Y2_K492 [3]: 1.8

COc1cc(CCC(=O)Oc2ccc([N+](=O)[O-])cc2[N+](=O)[O-])cc(OC)c1OC [fragment 33, 2,4-Dinitrophenyl 3-(3,4,5-trimethoxyphenyl)propanoate]
isoTOP-ABPP reactivity ratio at lysine O75323_K75 [1]: 3.0 | isoTOP-ABPP reactivity ratio at lysine P16930_K241 (FAH Fumarylacetoacetase): 1.7

O=C(Oc1ccc([N+](=O)[O-])cc1[N+](=O)[O-])c1ccc2ccccc2n1 [fragment 35, 2,4-Dinitrophenyl quinoline-2-carboxylate]
isoTOP-ABPP ratio (R) at liganded lysine O75323_K75 [1]: 1.6 | isoTOP-ABPP ratio (R) at liganded lysine P27635_K121 ([2]; 50 uM, in vitro): 0.6 | isoTOP-ABPP ratio (R) at liganded lysine P16930_K241 (FAH Fumarylacetoacetase): 3.4

O=C(Oc1ccc([N+](=O)[O-])cc1[N+](=O)[O-])c1ccccc1Nc1cccc(C(F)(F)F)c1 [fragment 40, 2,4-Dinitrophenyl 2-((3-(trifluoromethyl)phenyl)amino)benzoate]
isoTOP-ABPP ratio (R) at liganded lysine O75323_K75 [1]: 1.0 | isoTOP-ABPP ratio (R) at liganded lysine P16930_K241 (FAH Fumarylacetoacetase): 1.4 | isoTOP-ABPP ratio (R) at liganded lysine Q969Y2_K492 [3]: 0.6

CC(C)(C)OC(=O)NCCCC(=O)Oc1ccc([N+](=O)[O-])cc1[N+](=O)[O-] [fragment 41, 2,4-Dinitrophenyl 4-((tert-butoxycarbonyl)amino)butanoate]
isoTOP-ABPP ratio (R) at liganded lysine O75323_K75 [1]: 1.8 | isoTOP-ABPP ratio (R) at liganded lysine P27635_K121 ([2]; 50 uM, in vitro): 0.8 | isoTOP-ABPP ratio (R) at liganded lysine P16930_K241 (FAH Fumarylacetoacetase): 1.4

O=C(Oc1ccc([N+](=O)[O-])cc1[N+](=O)[O-])C(c1ccccc1)(c1ccccc1)c1ccccc1 [fragment 42, 2,4-Dinitrophenyl 2,2,2-triphenylacetate]
isoTOP-ABPP ratio (R) at liganded lysine O75323_K75 [1]: 0.9 | isoTOP-ABPP ratio (R) at liganded lysine P16930_K241 (FAH Fumarylacetoacetase): 0.9 | isoTOP-ABPP ratio (R) at liganded lysine Q969Y2_K492 [3]: 0.9

COC(=O)NC(=NC(=O)OCC1c2ccccc2-c2ccccc21)n1cccn1 [fragment 49, N-Methoxycarbonyl-N′-9-fluorenylmethoxycarbonyl-pyrazole-1-carboxamidine]
isoTOP-ABPP ratio, lysine O75323_K75 ([1]; 100 uM_231_sol_in vitro): 1.7 | isoTOP-ABPP ratio, lysine P27635_K121 ([2]; 100 uM_231_sol_in vitro): 1.8 | isoTOP-ABPP ratio, lysine P16930_K241 (FAH Fumarylacetoacetase; 100 uM_231_sol_in vitro): 1.3

NC(=O)c1cc(C(F)(F)F)cc(C(F)(F)F)c1 [fragment 51, reference compound]
isoTOP-ABPP ratio, lysine O75323_K75 ([1]; 50 uM_231_sol_in vitro): 0.9 | isoTOP-ABPP ratio, lysine P16930_K241 (FAH Fumarylacetoacetase; 50 uM_231_sol_in vitro): 0.9
